Measured values: PubChem BioAssay (NCI)
Several values for one entry are separate records, joined by “and”; a condition that tells them apart may be missing. Equal values may be shown once.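 How tested: cells in 96-well plates exposed to compound for 48 hours at five concentrations. GI50 = concentration required for 50% inhibition of growth. TGI marks complete inhibition of growth.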

Legend:
Assay in all cases: inhibition of tumour cell growth, NCI panel, 48 h
DU-145 prostate = test system: DU-145 prostate
HCC-2998 colon = test system: HCC-2998 colon
HT29 colon = test system: HT29 colon
IGROV1 ovarian = test system: IGROV1 ovarian
M14 melanoma = test system: M14 melanoma
MDA-MB-231 breast = test system: MDA-MB-231 breast
MDA-N = test system: MDA-N
NCI-H226 lung = test system: NCI-H226 lung
OVCAR-3 ovarian = test system: OVCAR-3 ovarian
PC-3 prostate = test system: PC-3 prostate
SNB-19 CNS = test system: SNB-19 CNS
SW-620 colon = test system: SW-620 colon
T-47D breast = test system: T-47D breast

| Structure (SMILES) | TGI (DU-145 prostate) | TGI (HCC-2998 colon) | TGI (HT29 colon) | TGI (IGROV1 ovarian) | TGI (M14 melanoma) | TGI (MDA-MB-231 breast) | TGI (MDA-N) | TGI (NCI-H226 lung) | TGI (OVCAR-3 ovarian) | TGI (PC-3 prostate) | TGI (SNB-19 CNS) | TGI (SW-620 colon) [µM] | TGI (T-47D breast) | GI50 (DU-145 prostate) [µM] | GI50 (M14 melanoma) [µM] | GI50 (MDA-MB-231 breast) [µM] | GI50 (PC-3 prostate) [µM] | GI50 (T-47D breast) [µM] |
| --- | --- | --- | --- | --- | --- | --- | --- | --- | --- | --- | --- | --- | --- | --- | --- | --- | --- | --- |
| Nc1nc(NCCOCP(=O)(O)O)c(N)c(=O)[nH]1 | > 100 µM | > 100 µM | > 100 µM | > 100 µM | > 100 µM | > 100 µM | > 100 µM | > 100 µM | > 100 µM | > 100 µM | > 100 µM | > 100 | > 100 µM |  |  |  |  |  |
| c1ccc(CSC(SCc2ccccc2)c2ccc3c(c2)OCO3)cc1 | > 10 µM | > 10 µM | > 10 µM | > 10 µM | > 10 µM | > 10 µM | > 10 µM | > 10 µM | > 10 µM | > 10 µM | > 10 µM | > 10 | > 10 µM |  |  |  |  |  |
| COc1nc(C)nc2c1ncn2Cc1ccccc1 | > 100 µM | > 100 µM | > 100 µM | > 100 µM | > 100 µM | > 100 µM | > 100 µM | > 100 µM | > 100 µM | > 100 µM | > 100 µM | > 100 | > 100 µM |  |  |  |  |  |
| Cn1nc(C(=O)N2CC(CCl)c3c2cc([N+](=O)[O-])c2ccccc32)cc1NC(=O)Nc1cc(C(=O)N2CC(CCl)c3c2cc([N+](=O)[O-])c2ccccc32)nn1C (stereo not given) | > 100 µM | > 100 µM |  |  | > 100 µM | > 100 µM | > 100 µM | > 100 µM | > 100 µM | > 100 µM | > 100 µM |  | > 100 µM |  |  |  |  |  |
| NCCCCCNOCCCN | > 100 µM | > 100 µM | > 100 µM | > 100 µM | > 100 µM | > 100 µM | > 100 µM | > 100 µM | > 100 µM | > 100 µM | > 100 µM | > 100 | > 100 µM |  |  |  |  |  |
| CCOC(=O)c1ccc(Nc2cnc3ccc(C(F)(F)F)cc3n2)cc1 | 47.7 µM | 26.7 µM | 24.1 µM | 30.4 µM | > 100 µM | 43.7 µM | 44.6 µM | 35.9 µM | 44.8 µM | 55.5 µM | 84.7 µM | 31.7 | 46.7 µM |  |  |  |  |  |
| COc1ccccc1N1C(=O)CC(=O)N(C(=O)CCCCCCCCC(=O)N2C(=O)CC(=O)N(c3ccccc3OC)C2=S)C1=S | > 100 µM | > 100 µM | > 100 µM |  | > 100 µM | > 100 µM | > 100 µM | > 100 µM | > 100 µM | > 100 µM | > 100 µM | > 100 | > 100 µM |  |  |  |  |  |
| O=[N+]([O-])c1ccc2[nH]c(O)c(N=NC(=S)Nc3ccccc3)c2c1 | 67.3 µM | 12.4 µM | 19 µM | 19.6 µM | 22.4 µM | 24.8 µM | 21.7 µM | 65.4 µM | 22.6 µM | 20.7 µM | 27.6 µM | > 100 | 38.9 µM |  |  |  |  |  |
| S=C(Nc1cccc(C2(N3CCCCC3)CCCCC2)c1)Nc1cccc(C2(N3CCCCC3)CCCCC2)c1 | 80.8 µM | 6.07 µM | 66.1 µM | > 100 µM | 35.5 µM | 32.5 µM | 33.8 µM | 78.5 µM | 50.5 µM | > 100 µM | > 100 µM | > 100 | 36.6 µM |  |  |  |  |  |
| O=C1/C(=C/c2ccc(Cl)cc2)Sc2scc(-c3cccc([N+](=O)[O-])c3)[n+]21 | > 33.3 µM | 10.5 µM | > 45 µM | 7.48 µM | > 35 µM | > 32.1 µM | 13.8 µM | > 100 µM | 36 µM | 20.6 µM | 38.9 µM | 3.82 | > 100 µM |  |  |  |  |  |
| Cc1cc(C#N)c(Nc2ccccc2[N+](=O)[O-])s1 | 78.8 µM | 91.1 µM |  | > 100 µM | > 100 µM | 92.4 µM | 30.9 µM | > 100 µM | 71.5 µM | 73.9 µM | > 100 µM | > 100 | > 100 µM |  |  |  |  |  |
| C(=N/NC1=NCCN1)/c1c2ccccc2c(/C=N\NC2=NCCN2)c2ccccc12 | 0.623 µM and 3.43 µM | 0.439 µM and 0.47 µM and 0.658 µM | 1.36 µM and 1.41 µM and 2.04 µM | 0.661 µM and 3.09 µM and 4.75 µM | 0.568 µM and 0.697 µM | 1.66 µM and 12.5 µM | 0.69 µM and 1.18 µM | 0.352 µM and 0.239 µM and 0.445 µM | 0.561 µM and 0.449 µM and 1.75 µM | 0.348 µM and 0.422 µM | 0.458 µM and 0.922 µM and 2.15 µM |  | 0.939 µM and 4.13 µM | 0.0878 | 0.25 | 0.459 | 0.0776 | 0.174 |
